Read-outs that look alike come from different tables or passages of the source.
How the values were obtained:
[1] = test system: mouse embryonic fibroblast cells NIH/3T3; assay: MTT cytotoxicity assay, NIH/3T3; type: cell-based; conditions: for SI (selectivity index): IC50(NIH/3T3)/IC50(A549); for IC50: Mus musculus, NIH3T3, cytotoxicity, NIH/3T3 cells, MTT (called CC50 in method)
Experimental: The antiproliferative activity of 1,2,3-triazole tethered dihydroartemisinin-isatin hybrids 8a-c and 9a-k against A549, multidrug-resistant A549/DOX and A549/DDP lung cancer cell lines as well as cytotoxicity towards mouse embryonic fibroblast cells NIH/3T3 were assessed by 3-(4,5-dimethylthiazol-2-yl)-2,5-diphenyltetrazolium bromide (MTT) assay, and half maximal inhibitory concentration (IC50) values were listed in Table 2.
The cytotoxicity (CC50) of the synthesized 1,2,3-triazole tethered dihydroartemisinin-isatin hybrids 8a-c and 9a-k were examined by the MTT assay in mouse embryonic fibroblast cells NIH/3T3. The compounds were dissolved in DMSO with concentrations from 1,024 to 1 μg/ml. The NIH/3T3 cells were maintained in culture medium at 37°C under 5% CO2 atmosphere. Cells were seeded in 96-well plates (1 × 10^4 cell per well) and allowed to recover for 24 h. After 72 h of exposure, cells were harvested and cell viability was assessed by MTT assay. The CC50 values were calculated by Bliss analy.

[2] = Stability in mouse/human microsomes, pooled range; type: in vitro ADME
Experimental: (§1) The metabolic stability of selected hybrids 8a,c and 9i was assessed in mouse and human microsomes, and the results were listed in Table 3.

[3] = test system: A549 lung cancer cells; assay: MTT antiproliferative assay, A549; type: cell-based; conditions: Homo sapiens
Experimental: (§2) The antiproliferative activity of 1,2,3-triazole tethered dihydroartemisinin-isatin hybrids 8a-c and 9a-k against A549, multidrug-resistant A549/DOX and A549/DDP lung cancer cell lines as well as cytotoxicity towards mouse embryonic fibroblast cells NIH/3T3 were assessed by 3-(4,5-dimethylthiazol-2-yl)-2,5-diphenyltetrazolium bromide (MTT) assay, and half maximal inhibitory concentration (IC50) values were listed in Table 2. A549, A549/DOX, and A549/DDP lung cancer cells (2 × 10^3) were plated in each well of a 96-well plate and were allowed to adhere and spread for 24 h. The 1,2,3-triazole tethered dihydroartemisinin-isatin hybrids 8a-c and 9a-k were added to a final concentration of 100 μM, and the cells were cultured for 24 h at 37°C. 3-(4,5-dimethyl-2-thiazolyl)-2,5-diphenyltetrazolium bromide (MTT) solution (10 µL) was added to each well, and the cultures were incubated for an additional 4 h. A further 100 µL of […] was added and incubation continued overnight. The absorbance at 540 nm was determined in each well with a 96-well plate reader. The growth of the treated cells was compared with that of untreated cells.

[4] = Pharmacokinetics in CD-1 mice; type: in vivo; conditions: mouse, plasma, 30 mg/kg, single intravenous administration; for clearance: read-out: Cl (clearance rate) (converted); for bioavailability: read-out: F (bioavailability); for Tmax: read-out: tmax (peak time) (converted)
Experimental: The pharmacokinetic behavior of hybrids 8a,c was determined in CD-1 mice model by single intravenous administration with dose of 30 mg/kg.
CD-1 mice (20–25 g) were used in the pharmacokinetic study, and each treatment group had 3 mice which were dosed with hybrids 8a,c suspension at 30 mg/kg by single intravenous administration. Compounds were suspended in 0.5% CMC for iv, and blood was collected from the jugular vein of each mouse at the following time points: 0.25, 0.5, 1, 2, 4, 6, 8 and 24 h after intravenous administration. Total area under the concentration time curve (AUC), the elimination half-time (t1/2), the peak concentration (Cmax) and the time to reach peak concentration (Tmax) of samples were determined directly from the experimental data using WinNonlin V6.2.1.

[5] = Stability in human liver microsomes; type: in vitro ADME
Experimental: as §1

[6] = test system: A549, A549/DOX and A549/DDP lung cancer cell lines; assay: MTT antiproliferative assay, ranges pooled over lung cancer cell lines; type: cell-based
Experimental: as §2

[7] = test system: doxorubicin-resistant A549 (A549/DOX) lung cancer cells; assay: MTT antiproliferative assay, A549/DOX; type: cell-based; conditions: Homo sapiens
Experimental: as §2

[8] = Stability in mouse liver microsomes; type: in vitro ADME
Experimental: as §1

[9] = test system: cisplatin-resistant A549 (A549/DDP) lung cancer cells; assay: MTT antiproliferative assay, A549/DDP; type: cell-based; conditions: A549/DDP
Experimental: as §2

[10] = Homo sapiens, range over A549 and A549/DOX, read-out: IC50, range over A549 and A549/DOX
[11] = range over the three lung cancer cell lines, read-out: IC50, range over A549, A549/DOX and A549/DDP

| Liver microsomes, range over mouse and human [2] | IC50 [3] | AUC [4] | Cmax [4] | half-life [4] | clearance [4] | bioavailability [4] | Tmax [4] | Liver microsomes, Human [5] | IC50 [6, 10] | IC50 [6, 11] | IC50 [7] | Liver microsomes, Mouse [8] | IC50 [9] | Compound | SI (selectivity index) [1] | IC50 [1] |
| --- | --- | --- | --- | --- | --- | --- | --- | --- | --- | --- | --- | --- | --- | --- | --- | --- |
| 68–83% | 8.32 µM | 883 ng·h/mL | 6.4 µM | 3.7 h | 38.5 mL/min/kg | 35.6% | 0.2 h | 68% | 7.54 to 15.9 µM | 7.54 to 12.1 µM | 12.1 µM | 77% | 10.7 µM | C[C@@H]1CC[C@H]2[C@@H](C)C(OCc3cn(CCN4C(=O)C(=O)c5ccccc54)nn3)O[C@@H]3O[C@@]4(C)CC[C@@H]1[C@]32OO4 (stereo partly drawn) [8a, 1-(2-(4-((((3R,5aS,6R,8aS,9R,12R,12aR)-3,6,9-trimethyldecahydro-12H-3,12-epoxy[1,2]dioxepino[4,3-i]isochromen-10-yl)oxy)methyl)-1H-1,2,3-triazol-1-yl)ethyl)indoline-2,3-dione] | >12.0 | > 100 µM |
| 68–83% | 7.54 µM | 654 ng·h/mL | 12.5 µM | 4.2 h | 52.7 mL/min/kg | 27.5% | 0.2 h | 83% | 7.54 to 15.9 µM | 7.54 to 12.1 µM | 9.89 µM | 71% | 8.77 µM | C[C@@H]1CC[C@H]2[C@@H](C)C(OCc3cn(CCN4C(=O)C(=O)c5cc(F)ccc54)nn3)O[C@@H]3O[C@@]4(C)CC[C@@H]1[C@]32OO4 (stereo partly drawn) [8c, 5-fluoro-1-(2-(4-((((3R,5aS,6R,8aS,9R,12R,12aR)-3,6,9-trimethyldecahydro-12H-3,12-epoxy[1,2]dioxepino[4,3-i]isochromen-10-yl)oxy)methyl)-1H-1,2,3-triazol-1-yl)ethyl)indoline-2,3-dione] | >13.2 | > 100 µM |
